Source: article PMC11677424, “Early-Stage IM Treatment with the Host-Derived Immunostimulant CPDI-02 Increases Curative Protection of Healthy Outbred Mice Against Subcutaneous Infection with Community-Acquired Methicillin-Resistant Staphylococcus aureus USA300” (Pharmaceutics, 2024)
Converted amounts (≈) assume the structure as drawn.

Tests used:
CA-MRSA USA300 LAC = assay: Curative treatment of female CD-1 mice infected SQ with CA-MRSA: abscess surface area by image analysis; assay type: in vivo, Staphylococcus aureus; conditions: for effect on maximum abscess surface area or time to resolution vs vehicle alone: 6 treatments
Procedure: CA-MRSA USA300 LAC (Staphylococcus aureus Rosenbach, ATCC BAA-1756) was stored in 50% glycerol at −80 °C until use. To start a culture, a Tryptic Soy Agar (TSA; Remel) plate was streaked and incubated overnight at 37 °C. A single colony from the streaked agar plate was transferred to a 50 mL conical tube containing 30 mL of Tryptic Soy Broth (TSB; Remel) and incubated [37 °C] overnight while shaking [200 rpm]. The overnight culture was diluted [1:10] in TSB, incubated at 37 °C for ~2 h until A600 = 0.5 to 0.55, and pelleted [3000 g, 10 min] at 4 °C. The pellet was resuspended in PBS and pelleted as before and then resuspended in 0.05% (w/v) Cytodex-1 in sterile PBS (typical yield ~5 × 10^8 CFU/mL). MRSA concentration was confirmed by serial dilution in sterile PBS, dot plating on TSA plates, and incubation at 37 °C for 24 h before counting.
All procedures were approved by the University of Nebraska Medical Center Institutional Animal Care and Use Committee. Female outbred CD-1 mice (Charles Rivers, Strain Code 022, 4-6 weeks old) were acclimated in the animal facility for at least one week, and their rear flanks were shaved 24 h before the study. Mice were anesthetized with isoflurane and 0.100 mL of CA-MRSA stock solution (Section 2.3) was injected SQ (5 × 10^7 CFU total) from the left rear flank into the dorsal side. […] For IM (left caudal muscle) and SQ (left flank) administration, CPDI-02 was administered in 0.050 mL of sterile PBS [20 mg/mL] (volume adjusted to 50 mg/kg dose). For topical administration (TOP), CPDI-02 was applied to abscesses in 0.100 mL of ointment (3% w/v) (Section 2.2) using a positive displacement pipette [150 mg/kg dose]. For IV administration (tail vein), CPDI-02 was administered in 0.050 mL sterile PBS [5 mg/mL] (volume adjusted to 12.5 mg/kg dose). […] Mouse abscesses were imaged with reference scales daily over 10 days starting at 24 h post-challenge. Abscess surface areas were determined by image analysis (ImageJ®, ver.1.54h) and compared between vehicle and treatment group for each administration route over ten days post-challenge by repeated measurement with two-way ANOVA with Geisser–Greenhouse correction.

[1] = tested on: pro-inflammatory cytokines/chemokines in subcutaneous abscesses; assay: Pro-inflammatory cytokines and chemokines in subcutaneous abscesses (multiplex ELISA); assay type: in vivo, female outbred CD-1 mice; conditions: single IM 50 mg/kg at 6 h post-challenge, n = 5
Procedure: At 3 h and 18 h post-treatment (Section 2.4: single IM treatment), mice were euthanized (n = 5 per cohort per time point), then abscess and skin biopsies were collected (Section 2.5), suspended in PBS [2 mL], and homogenized in C tubes (Miltenyi Biotec 130-093-237) using a gentleMACS Dissociator (Miltenyi Biotec 130-093-235, program B). Tissue homogenates were stored at −20 °C until analysis. Homogenized abscess tissues were then analyzed using a V-PLEX Pro-inflammatory Panel 1 Mouse Kit (Meso Scale Diagnostics K15048D-1) on a MESO QuickPlex SQ 120MM (MESO, Rockville, MD, USA) to measure the inflammatory markers of the abscesses.

[2] = tested on: primary human mononuclear phagocytes (MPs); conditions: cited from earlier work
Excerpt: (§1) Complement Peptide-Derived Immunostimulant-02 (CPDI-02) (formerly EP67) is a novel, second-generation host-derived decapeptide agonist of […] (C5) Receptor 1 (C5aR1/C5a1R/CD88), which is based on the C-terminal pharmacophore of human Complement Peptide C5a (hC5a).

[3] = tested on: primary human neutrophils (NPs); conditions: cited from earlier work
Excerpt: as §1

[4] = tested on: neutrophils (Ly6G/Ly6C+) and mononuclear phagocytes (F4/80+) in subcutaneous abscesses; assay: Proportions of neutrophils and mononuclear phagocytes in subcutaneous abscesses (quantitative IHC); assay type: in vivo, female outbred CD-1 mice; conditions: single IM 50 mg/kg at 6 h post-challenge; 18 h post-treatment; n = 3 mice
physchem = conditions: aqueous buffer

In the case of `CSCC[C@H](NC(=O)[C@H](CC(=O)O)NC(=O)[C@H](CCCCN)NC(=O)[C@H](Cc1ccccc1)NC(=O)[C@H](CO)NC(=O)[C@@H](N)Cc1ccc(O)cc1)C(=O)N1CCC[C@H]1C(=O)N(C)[C@@H](CC(C)C)C(=O)N[C@H](C)C(=O)N[C@@H](CCCNC(=N)N)C(=O)O` [CPDI-02], the “effect of repeat treatment starting at 24 h post-challenge” value (CA-MRSA USA300 LAC; regardless of administration route) is reported as “no effect”, the “maximum abscess surface area (Day 1 post-challenge)” value (CA-MRSA USA300 LAC; repeat IM 50 mg/kg starting 6 h post-challenge, mean ± SEM, n = 10, vehicle 74 ± 11, p = 0.0052, SEM) is reported as 31 ± 8 mm^2 and the “effect on maximum abscess surface area or time to resolution vs vehicle alone” value (shortened to “effect … vs vehicle alone”) (CA-MRSA USA300 LAC; repeat IV (tail vein) 12.5 mg/kg starting 6 h post-challenge) is reported as “no effect”. For the same molecule, the “effect … vs vehicle alone” value (CA-MRSA USA300 LAC; repeat SQ (left flank) 50 mg/kg starting 6 h post-challenge) was “no effect”, the “effect … vs vehicle alone” value (CA-MRSA USA300 LAC; repeat topical (TOP), 0.100 mL of 3% w/v ointment on abscess, 150 mg/kg, starting 6 h post-challenge) was “no effect” and the “time to resolution vs vehicle alone” value (CA-MRSA USA300 LAC; single IM 50 mg/kg at 6 h post-challenge, similar extent as repeated IM treatment) was “decreased”. The “levels of IFN-γ, IL-2, IL-4, IL-5, IL-6, IL-10, IL-12p70, CXCL-1 [KC/GRO], TNF-α in subcutaneous abscesses” value ([1]; 3 h and 18 h post-treatment) was “no effect”, the “levels of IL-1β in subcutaneous abscesses vs vehicle alone” value ([1]; 3 h post-treatment) was “decreased” and the “potency for activating MPs over NPs” value ([2]; primary human MPs vs primary human NPs) was 10^3 fold. For the same molecule, the EC50 ([2]; primary human MPs) was 0.167 µM, the EC50 [3] was 160 µM and the “increase of ratio of MPs (F4/80+) to total cells (DAPI+) vs vehicle alone” value [4] was 4 fold. The “increase of ratio of mononuclear phagocytes to neutrophils (Ly6G/Ly6C+) vs vehicle alone” value [4] was 7 fold, the “ratio of NPs (Ly6G/Ly6C+) to total cells (DAPI+) in subcutaneous abscesses vs vehicle alone” value [4] was “similar” and the solubility (physchem) was about 100 mg/mL (≈ 80.5 mM).
